Measurements published in US11549123B2, “Plant EPSP synthases and methods of use” (PIONEER HI-BRED INTERNATIONAL, INC., priority 2015, dated 2023).
Residue numbers refer to the chain shown, from its start.

How the values were obtained:
Type in all cases: biochemical
[1] = biological target: Zea mays EPSPS variant 208V 313G (Zea mays, UniProt O24566, E312G/I207V); experiment: EPSPS reaction rate with or without 10 uM glyphosate, 208V 313G; settings: pH 7; read-out: Reaction rate with 10 μM glyph, % no glyph; note: 50 µM PEP and S3P
Zea mays EPSPS variant 208V 313G, sequence (O24566 1-444 I207V/E312G): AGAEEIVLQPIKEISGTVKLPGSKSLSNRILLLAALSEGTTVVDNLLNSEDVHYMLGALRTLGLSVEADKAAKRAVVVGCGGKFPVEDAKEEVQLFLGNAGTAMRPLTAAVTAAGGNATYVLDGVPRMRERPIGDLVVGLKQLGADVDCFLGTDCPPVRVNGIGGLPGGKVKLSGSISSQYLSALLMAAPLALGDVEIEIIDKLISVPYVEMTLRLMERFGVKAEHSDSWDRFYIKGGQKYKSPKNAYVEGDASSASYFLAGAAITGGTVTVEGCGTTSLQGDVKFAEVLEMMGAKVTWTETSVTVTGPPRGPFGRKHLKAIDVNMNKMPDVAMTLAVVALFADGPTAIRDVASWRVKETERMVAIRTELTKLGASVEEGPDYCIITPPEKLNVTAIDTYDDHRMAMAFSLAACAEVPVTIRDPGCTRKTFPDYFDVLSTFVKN

[2] = biological target: Zea mays EPSPS variant 202R (Zea mays, UniProt O24566, I201R); experiment: EPSPS reaction rate with or without 10 uM glyphosate, 202R; settings: pH 7; read-out: Reaction rate with 10 μM glyph, % no glyph; note: 50 µM PEP and S3P
Zea mays EPSPS variant 202R, sequence (O24566 entry or part of it I201R): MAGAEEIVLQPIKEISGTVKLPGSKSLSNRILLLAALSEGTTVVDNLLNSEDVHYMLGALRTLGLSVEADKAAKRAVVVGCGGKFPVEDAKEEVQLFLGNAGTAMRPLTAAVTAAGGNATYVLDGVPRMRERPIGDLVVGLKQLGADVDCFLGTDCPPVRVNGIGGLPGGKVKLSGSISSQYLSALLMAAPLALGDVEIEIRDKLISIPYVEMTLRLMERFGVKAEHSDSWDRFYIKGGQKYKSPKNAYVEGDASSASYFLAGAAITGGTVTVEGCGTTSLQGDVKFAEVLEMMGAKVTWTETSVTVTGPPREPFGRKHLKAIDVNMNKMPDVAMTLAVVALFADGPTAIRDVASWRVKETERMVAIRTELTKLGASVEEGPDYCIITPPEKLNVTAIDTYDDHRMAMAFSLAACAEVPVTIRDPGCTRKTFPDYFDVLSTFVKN

[3] = biological target: Zea mays EPSPS variant Zm-G102A (Zea mays, UniProt O24566, G101A); experiment: Rapid two-rate method for (kcat/KM)*KI, Zm-G102A; settings: [E] 0.07 uM, [Gly] 1000 uM
Zea mays EPSPS variant Zm-G102A, sequence (O24566 entry or part of it G101A): as the sequence (O24566 entry or part of it I201R) above, with G102A, R202I counted along it
Text: (§1) There are several practical considerations for accurately estimating (kcat/KM)*KI with the rapid method. […] 2) The inhibitor concentration must be adjusted so as to obtain a degree of inhibition that minimally amplifies the error in the term v0-vi in Equation 3. If inhibition is too little, v0-vi will be small, and the error in the multiplier vi×v0/(v0-vi) will be large. […] 3) Substrate concentration should be set at the approximate KM of the parental variant(s), subject to the sensitivity of the assay. High substrate concentration obscures sensitivity to the inhibitor and reduces stringency for capturing improvements in KM. Depending on the necessity for speed, there exists opportunity for customizing enzyme and inhibitor concentrations. […] The rapid method was repeated for those and obtained data that correlated better with data obtained by substrate saturation analysis. For screening purposes however, that correlation step is not necessary. Conditions can be set so that variants with a pre-determined minimal fitness level are accurately quantified.
(§2) In Table 15, parameters above the heavy line for the rapid method were obtained under standard conditions. For variants shown below the heavy line, the rapid analysis was repeated with enzyme or glyphosate concentrations adjusted as needed to generate sufficient signal within the limits for linear initial rates.

[4] = biological target: T1, Zea mays EPSPS variant Zm-T103A (Zea mays, UniProt O24566, T102A); experiment: Rapid two-rate method for (kcat/KM)*KI, Zm-T103A; settings: [E] 0.07 uM, [Gly] 1000 uM
T1 construct: native maize plus T103A; E. coli BL21(DE3), Ni-NTA purified
T1 sequence (O24566 with tags, fused parts or gaps T102A): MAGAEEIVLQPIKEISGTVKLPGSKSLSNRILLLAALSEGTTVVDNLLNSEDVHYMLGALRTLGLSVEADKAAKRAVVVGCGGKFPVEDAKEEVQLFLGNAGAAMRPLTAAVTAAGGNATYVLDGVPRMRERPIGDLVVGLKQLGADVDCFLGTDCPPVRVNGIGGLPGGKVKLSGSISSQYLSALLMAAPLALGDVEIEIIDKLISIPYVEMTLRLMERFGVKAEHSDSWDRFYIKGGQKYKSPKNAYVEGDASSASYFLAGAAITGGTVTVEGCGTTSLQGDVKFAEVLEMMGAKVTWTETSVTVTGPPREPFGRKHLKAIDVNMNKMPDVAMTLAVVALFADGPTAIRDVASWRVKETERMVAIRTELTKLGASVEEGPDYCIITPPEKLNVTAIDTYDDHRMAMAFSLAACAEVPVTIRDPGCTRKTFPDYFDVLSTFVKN
Text: as §1, §2

[5] = biological target: T2, Zea mays EPSPS variant Zm-H6 (868-H6) with R61Y (H6-R61Y) (Zea mays, UniProt O24566, A1R/A3W/A415G/A71Q/D401G/E301S/E390G/G101A/I207L/K83R/L97C/R60Y/T278A/T360S/T440Q/V437R); experiment: Rapid two-rate method for (kcat/KM)*KI, H6-R61Y; settings: [E] 0.07 uM, [Gly] 1000 uM
T2 construct: 868-H6 plus R61Y; E. coli BL21(DE3), Ni-NTA purified
T2 sequence (O24566 with tags, fused parts or gaps A1R/A3W/R60Y/A71Q/K83R/L97C/G101A/I207L/T278A/E301S/T360S/E390G/D401G/A415G/V437R/T440Q): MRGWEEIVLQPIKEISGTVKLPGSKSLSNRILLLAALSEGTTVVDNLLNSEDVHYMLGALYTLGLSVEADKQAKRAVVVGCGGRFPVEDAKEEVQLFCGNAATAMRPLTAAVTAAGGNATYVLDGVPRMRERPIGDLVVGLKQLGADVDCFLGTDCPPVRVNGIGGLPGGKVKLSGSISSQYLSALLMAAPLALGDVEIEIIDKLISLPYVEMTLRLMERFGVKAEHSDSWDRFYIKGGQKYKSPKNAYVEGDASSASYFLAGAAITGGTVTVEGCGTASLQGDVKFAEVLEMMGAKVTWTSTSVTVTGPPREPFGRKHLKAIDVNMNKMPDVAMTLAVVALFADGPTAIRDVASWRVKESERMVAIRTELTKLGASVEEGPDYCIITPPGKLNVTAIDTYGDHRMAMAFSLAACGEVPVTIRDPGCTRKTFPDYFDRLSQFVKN
Text: as §1, §2

[6] = biological target: T3, Zea mays EPSPS variant Zm-H6 (868-H6) with A76V (H6-A76V) (Zea mays, UniProt O24566, A1R/A3W/A415G/A71Q/A75V/D401G/E301S/E390G/G101A/I207L/K83R/L97C/T278A/T360S/T440Q/V437R); experiment: Rapid two-rate method for (kcat/KM)*KI, H6-A76V; settings: [E] 0.07 uM, [Gly] 1000 uM
T3 sequence (O24566 with tags, fused parts or gaps A1R/A3W/A71Q/A75V/K83R/L97C/G101A/I207L/T278A/E301S/T360S/E390G/D401G/A415G/V437R/T440Q): T2 sequence (O24566 with tags, fused parts or gaps A1R/A3W/R60Y/A71Q/K83R/L97C/G101A/I207L/T278A/E301S/T360S/E390G/D401G/A415G/V437R/T440Q) with Y61R, A76V
Text: as §1, §2

[7] = biological target: T4, Zea mays EPSPS, wild-type, SEQ ID NO:1 (Zea mays, UniProt O24566); experiment: EPSPS reaction rate with or without 10 uM glyphosate, native maize; settings: pH 7; read-out: Reaction rate with 10 μM glyph, % no glyph; note: 50 µM PEP and S3P
T4 construct: expressed in E. coli, purified
T4 sequence (O24566 entry or part of it): as the sequence (O24566 entry or part of it I201R) above, with R202I counted along it

O=C(O)CNCP(=O)(O)O [glyphosate, N-phosphonomethylglycine]
activity at 10 µM [1]: 3.21% | activity at 10 µM [2]: 7.48% | (kcat/KM)*KI [3]: 3596 | (kcat/KM)*KI [4]: 543 | (kcat/KM)*KI [5]: 1889 | (kcat/KM)*KI [6]: 2418 | activity at 10 µM [7]: 9.49%
